In patent US7879835B2 (Korea Research Institute of Chemical Technology, priority 2004, dated 2011):

Experiments:
[1] = tested on: osteoclast (TRAP-positive multinuclear cell) formation; assay: Inhibitory effect on osteoclast formation (TRAP staining); assay type: cell-based, mice; conditions: 8 days culture with M-CSF and RANKL, compared to control
Method: The inhibitory activities of the alpha-arylmethoxyacrylate derivatives prepared in the above Examples on the proliferation of osteoclasts were examined as follows.
First, a bone marrow sample containing osteoclast pregenitor cells was isolated as follows. After sacrificing 7 to 9 week-old female mice by cervical dislocation, femur and tibia were excised aseptically while removing soft tissues attached thereto, After cutting both ends of the long bones, 1 ml of an enzyme solution containing 0.1% collagenase (Gibco), 0.05% trypsin and 0.5 mM EDTA (Gibco) was injected into the bone marrow cavity at one end using a syringe with a 26-gauge needle, and the bone marrow was then collected. After stirring the recovered bone marrow for 30 min, the precipitated bone marrow cells were collected, and cultured in α-minimum essential medium (α-MEM) supplemented with 10% FBS for 24 hrs. Then, non-adherent cells, which are osteoclast pregenitors, were aliquoted onto a culture plate at a density of 2×10^5 cells per well, and cultured for 8 days in α-MEM supplemented with 20 ng/ml of macrophage-colony stimulating factor (M-CSF, Peprotech, USA), 30 ng/ml RANKL (Peprotech, USA), and 0.3, 1.0 or 3 μM of the compounds of the Examples. Control cells were cultured at the same condition except not adding the compounds of the Examples.
After cell culture for 8 days, the adherent cells were washed with PBS and fixed with citrate-acetate-formaldehyde for 5 min. The fixed cells were incubated at 37° C. for 1 hr in acetate buffer (pH 5.0) containing naphthol AS-BI phosphate, fast Garnet GBC solution and 7 mM tartrate buffer (pH 5.0) to conduct TRAP (tartrate-resistant acid phosphatase) staining.

osteoclasts = assay: Inhibitory effect on resorption activity of osteoclast (resorption pit area on calcium phosphate-coated plate); assay type: cell-based, mice; conditions: compared to control
Method: After finishing culture, the plate was washed with distilled water, and 50 μl/well of 5% sodium hypochlorite was added to the plate. The plate was let alone for 5 min, washed again with distilled water to remove the adherent cells, and dried at room temperature. Then, the area of formed resorption pits was calculated by means of Image Pro Plus software (Media Cybernetics Ver. 3.0).

MG-63 cells = assay: Cytotoxicity test against osteoblast (MTT); assay type: cell-based, human
Method: (§1) In order examine the toxicities of the compounds of the Examples against osteoclast pregenitors, pregenitor cells were aliquotted onto a 96-well microplate at a density of 2×10^5 cells per well, treated with 2, 4 and 8 μM of the test compounds, respectively, and cultured for 48 hrs in α-MEM supplemented with 20 ng/ml of M-CSF (Peprotech, USA) using 37° C. incubator (5% CO2). At 3 hrs before the culture was finished, 50 μl of MTT (3-(4,5-dimethylthiazol-2-yl)-2,5-diphenyltetrazolium bromide) solution (50 μg/ml) was added to each well. Upon completion of the cell culture, the supernatant was removed, and the precipitated dye was reacted with 100 μl of isopropanol/0.04 N HCl at room temperature for 30 min to dissolve it. The absorbances of the wells were measured at 550 nm, and the relative absorbance of each well relative to that of the control (set as 100) is shown in Table 6.
In order to examine the toxicity of the compounds of the Examples against osteoblasts, human osteosarcoma-derived cell line, MG-63 (ATCC No. CRL-1427) cells were treated with 0.1, 0.3, 1.0 and 3.0 μM of the compounds of the Examples, and cultured in DMEM supplemented with 10% FBS (fetal bovine serum).

[2] = tested on: osteoclast pregenitor cells; assay: Cytotoxicity against osteoclast pregenitor (MTT); assay type: cell-based, mice; conditions: 48 hrs, absorbance at 550 nm
Method: as §1

SMILES | Osteoclast formation inhibitory effects (%) ([1]; 0.3 μM) | Osteoclast formation inhibitory effects (%) ([1]; 1.0 μM) | Osteoclast formation inhibitory effects (%) ([1]; 3.0 μM) | Reduction (%) of the resorption pit area of osteoclasts (osteoclasts; 1 uM) | Reduction (%) of the resorption pit area of osteoclasts (osteoclasts; 3 uM) | relative absorbance relative to that of the control (set as 100), MTT (MG-63 cells; 0.33 uM) | relative absorbance relative to that of the control (set as 100), MTT (MG-63 cells; 1 uM) | relative absorbance relative to that of the control (set as 100), MTT (MG-63 cells; 3 uM) | Reduction (%) of the resorption pit area of osteoclasts (osteoclasts; 0.3 uM) | relative absorbance relative to that of the control (set as 100), MTT ([2]; 2 uM) | relative absorbance relative to that of the control (set as 100), MTT ([2]; 4 uM) | relative absorbance relative to that of the control (set as 100), MTT ([2]; 8 uM) | relative absorbance relative to that of the control (set as 100), MTT (MG-63 cells; 0.11 uM)
CO/C=C(/C(=O)OC)c1ccccc1CON=C(C)c1cccc(OCCN2CCOCC2)c1 [compound 20] | 12% | 34% | 100% | 26% | 47% | 106 | 106 | 105 |  |  |  |  | 
CO/C=C(/C(=O)OC)c1ccccc1COc1cccc(C(OC)OC)c1 [compound 133] | 16% | 95% | 100% | 99% | 100% | 108 | 107 | 103 | 75% | 93 | 104 | 102 | 103
C=CCCCCCCOc1cccc(OCc2ccccc2/C(=C\OC)C(=O)OC)c1 [compound 197] | 100% | 100% | 100% | 100% | 100% | 101 | 111 | 103 | 100% |  |  |  | 112
CO/C=C(/C(=O)OC)c1ccccc1COc1cccc(C(F)CC(C)(F)F)c1 (stereo not shown) [compound 205] | 90% | 100% | 100% | 100% | 100% |  |  |  |  | 101 | 109 | 104 | 
CO/C=C(/C(=O)OC)c1ccccc1COc1cccc(C(F)CC(C)=O)c1 (stereo not shown) [compound 206] | 35% | 100% | 100% | 100% | 100% |  |  |  | 97% | 102 | 102 | 108 | 
CO/C=C(/C(=O)OC)c1ccccc1COc1cccc(OCC2CC2)c1 [compound 215] | 51% | 100% | 100% | 100% | 100% |  |  |  | 97% | 96 | 102 | 107 | 
CO/C=C(/C(=O)OC)c1ccccc1COc1cccc(OCC=C(C)C)c1 [compound 217] | 94% | 100% | 100% | 100% | 100% |  |  |  |  | 90 | 96 | 107 | 
CO/C=C(/C(=O)OC)c1ccccc1COc1cccc(OCC(C)C)c1 [compound 219] | 99% | 100% | 100% | 88% | 100% |  |  |  |  | 90 | 100 | 99 | 
CCCCCCOc1cccc(OCc2ccccc2/C(=C\OC)C(=O)OC)c1 [compound 220] | 100% | 100% | 100% | 70% | 73% |  |  |  | 42% | 89 | 98 | 96 | 
CCC(C)Oc1cccc(OCc2ccccc2/C(=C\OC)C(=O)OC)c1 (stereo not shown) [compound 221] | 39% | 100% | 100% | 100% | 100% |  |  |  | 94% | 96 | 96 | 99 | 
CO/C=C(/C(=O)OC)c1ccccc1COc1cccc(OC2CCCC2)c1 [compound 222] | 69% | 100% | 100% | 100% | 100% |  |  |  | 100.0% | 97 | 108 | 101 | 
CO/C=C(/C(=O)OC)c1ccc(Cl)cc1COc1ccc(OCC=C(C)C)cc1 [compound 269] | 97% | 100% | 100% | 100% | 100% | 81 | 94 | 88 | 100% |  |  |  | 
CCCCCCOc1ccc(OCc2cc(Cl)ccc2/C(=C\OC)C(=O)OC)cc1 [compound 271] | 94% | 100% | 100% | 94% | 42% | 114 | 79 | 64 | 30% |  |  |  | 
CCC(C)Oc1ccc(OCc2cc(F)ccc2/C(=C\OC)C(=O)OC)cc1 (stereo not shown) [compound 319] | 82% | 100% | 100% | 100% | 100% |  |  |  | 0% |  |  |  | 
